Laboratory results taken from US20030203969A1, “Pharmaceutically active aromatic guanylhydrazones” (priority 2000, published 2003).

How the values were obtained:
[1] = tested on: T-cell-tropic HIV-1NL4/3 strain; assay: Inhibition of T-cell-tropic HIV-1 NL4/3 replication in de novo infected Jurkat cells (p24 antigen); type: cell-based
Procedure: (§1) HIV replication was measured either by p24 HIV Antigen Capture Assay Kit (ELISA; HIVAG-1 Monoclonal kit BIA011; Abbott) following the manufacturer's recommendation, or by using the Quantiplex HIV-1 RNA 3.0 Assay (bDNA) system (Chiron Diagnostics). The latter assay is a signal amplification nucleic acid probe assay (employing a sandwich nucleic acid hybridization procedure) for direct quantitation of HIV RNA in human plasma. There, in brief, HIV-1 is first concentrated from plasma by centrifugation. After release of genomic HIV-1 RNA from the virions, the RNA is captured to a microwell by a set of specific, synthetic oligonucleotide capture probes. A set of target probes hybridize to both the viral RNA and the pre-amplifier probes. The capture probes, comprised of 17 individual capture extenders, and the target probes, comprised of 81 individual target extenders, bind to different regions of the pol gene of the viral RNA. The amplifier probe hybridizes to the pre-amplifier forming a branched DNA (bDNA) complex. Then, multiple copies of an alkaline phosphatase labeled probe are hybridized to this immobilized bDNA complex. Detection is achieved by incubating the entire complex with a chemoluminescent substrate. Light emission is directly proportional to the amount of HIV-1 RNA present in each sample, and results are recorded as relative light units by an appropriate analyzer.
(§2) Jurkat cells (species: human T-cell leukemia; special characteristics: cells are permissive for growth of T-cell tropic HIV strains; source:ATCC Cat.No. TIB 152) or PM1 cells (species: clonal derivative of human HUT 78 cells; special characteristics: cells are permissive for growth of macrophage-tropic and T-cell tropic HIV strains; source: Dr. Marvin Reitz, courtesy of the NIH AIDS Research and Reference Reagent Program Cat.No. 3038) were stimulated with Phytohemagglutinin (PHA-P, Product No. L9132 from Sigma) in a concentration of 2 μg/ml (1.5×10^6 cells/ml) and Hexadimethrine Bromide (Polybrene, Product No. H9268 from Sigma) in a concentration of 2 μg/ml (1.5×10^6 cells/ml) in RPMI 1640 medium containing 10% fetal calf serum (FCS, Pansystems GmbH) and antibiotics for 3 days.
(§3) For HIV-1 infection, 5×10^7 cells were resuspended in 500 μl culture medium without test drugs and incubated in a 50 ml blue-cap-tube at 37° C. for 5 hrs with HIV-1 high titer viral stocks. Jurkat cells were infected with the T-cell tropic strain HIV-1 NL4-3, PM1 cells with the macrophage tropic strain HIV-1 Ba-L (both from the NIH AIDS Research and Reference Reagent Program). After infection, cells were washed twice with PBS without Ca^2+ and Mg^2+ to avoid false positive p24 antigen determination. Cells were resuspended, and identical aliquots (1×10^6/ml) of infected cells were further cultured in 10 ml medium with test drugs at various concentrations, or in medium with DMSO as control for calculation of the inhibition of virus replication (in %].
(§4) Culture medium was changed and cells were split at days 3 and 7 of the experiments. Viability of the cells (Trypan-blue staining), cell counts and p24 antigen levels were determined at days 3, 7 and 10 of the experiments. No significant differences in cell viability were observed (˜85-90% living cells).
(§5) At day 10 of infection, the HIV strains replicated vigorously in untreated cultures. Numbers describe percent inhibition of HIV replication as compared to control experiments.

[2] = molecular target: T1, deoxyhypusine synthase (DHS) (Homo sapiens, UniProt P49366); assay: In vitro DHS screening assay (hypusine formation on eIF-5A); type: biochemical
T1 construct: made in house; host or cells: E. coli BL21 (DE3), pGex vector
T1 sequence (P49366 1-369): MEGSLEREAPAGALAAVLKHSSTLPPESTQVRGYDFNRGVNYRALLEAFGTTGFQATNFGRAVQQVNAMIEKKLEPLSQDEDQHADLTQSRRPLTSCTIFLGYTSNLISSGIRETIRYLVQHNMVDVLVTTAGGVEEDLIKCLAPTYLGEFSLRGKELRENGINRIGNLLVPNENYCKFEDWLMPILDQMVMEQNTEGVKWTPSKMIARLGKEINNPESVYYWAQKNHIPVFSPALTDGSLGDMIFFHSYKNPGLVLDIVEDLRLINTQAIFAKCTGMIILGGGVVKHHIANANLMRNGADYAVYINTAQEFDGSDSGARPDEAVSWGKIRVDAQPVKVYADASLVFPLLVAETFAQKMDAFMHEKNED

[3] = tested on: macrophage-tropic HIV-1Ba-L strain; assay: Inhibition of macrophage-tropic HIV-1 Ba-L replication in de novo infected PM1 cells (p24 antigen); type: cell-based
Procedure: as §1, §2, §3, §4, §5

E. Coli XL-1 blue strain = assay: Growth assay for E. coli (optical density at 610 nm); type: cell-based; conditions: LB medium, 37° C., one day; read-out: IC50 (μM) E. coli proliferation
Procedure: We used the E. Coli XL-1 blue strain (Stratagene) for the investigation of antibacterial activity. During this experiments LB medium was used for E. coil growth. LB was prepared as follows: 1% trypton (weight/volume), 0.5% Yeast extract (weight/volume), and 1.5% NaCl (weight/volume) were dissolved in water and autoclaved. The media contained the inhibitor at 100 μM, 10 μM, or 1 μM concentrations, respectively.
The assay was performed as follows: bacteria were seeded to 96-well plates containing the respective inhibitors. The bacteria-containing plates were incubated at 37° C. for one day. After incubation time, E. coli growth was assayed by the measurement of the optical density at 610 nm wavelength.

Compound | percent inhibition of HIV replication as compared to control ([1]; HIV-1 NL4/3, 1.0 μM, d7) [%] | percent inhibition of HIV replication as compared to control ([1]; HIV-1 NL4/3, 1.0 μM, d10) [%] | percent inhibition of HIV replication as compared to control ([1]; HIV-1 NL4/3, 5.0 μM, d7) [%] | percent inhibition of HIV replication as compared to control ([1]; HIV-1 NL4/3, 5.0 μM, d10) [%] | inhibition of the hypusine formation on the elF-5A protein [2] | percent inhibition of HIV replication as compared to control ([3]; 1.0 μM, d7) [%] | percent inhibition of HIV replication as compared to control ([3]; 1.0 μM, d10) [%] | percent inhibition of HIV replication as compared to control ([3]; 5.0 μM, d7) [%] | percent inhibition of HIV replication as compared to control ([3]; 5.0 μM, d10) [%] | IC50 (E. Coli XL-1 blue strain) [µM]
C/C(=N\N=C(N)N)c1ccc(NC(=O)Nc2cc(/C(C)=N/N=C(N)N)cc(/C(C)=N/N=C(N)N)c2)cc1 [Compound 1, N-(4-acetylphenyl)-N′-(3,5-diacetylphenyl)urea tris (amidinohydrazone)] | 15 | 5 | 52 | 31 | potent inhibitors | 23 | 0 | 72 | 51 | < 0.1
CC(=NNC(=N)N)c1cc(NC(=O)CCC(=O)Nc2cc(C(C)=NNC(=N)N)cc(C(C)=NNC(=N)N)c2)cc(C(C)=NNC(=N)N)c1 [Compound 5, N,N′-bis (3,5-diacetylphenyl) butane diamide tetrakis (amidinohydrazone)] | 26 | 0 | 70 | 16 | potent inhibitors | 48 | 35 | 97 | 86 | < 0.1
